Tests used:
BRAF [1] = target: T1, BRAF (Homo sapiens (Human), UniProt P15056); test: KINOMEscan competition binding assay (Kd); conditions: read-out: Kd Values Against MAPK Pathway Kinases: BRAF
Protocol: (§1) KINOMEscan™ is based on a competition binding assay that quantitatively measures the ability of a test compound of the invention to compete with an immobilized, active-site directed ligand. The Kinase assay is performed by combining three components: DNA-tagged kinase; immobilized ligand; and a test compound. The ability of the test compound to compete with the immobilized ligand is measured via quantitative PCR of the DNA tag.
(§2) For most assays, kinase-tagged T7 phage strains were prepared in an E. coli host derived from the BL21 strain. E. coli were grown to log-phase and infected with T7 phage and incubated with shaking at 32° C. until lysis. The lysates were centrifuged and filtered to remove cell debris. The remaining kinases were produced in HEK-293 cells and subsequently tagged with DNA for qPCR detection. Streptavidin-coated magnetic beads were treated with biotinylated small molecule ligands for 30 minutes at room temperature to generate affinity resins for kinase assays. The liganded beads were blocked with excess biotin and washed with blocking buffer (SeaBlock (Pierce), 1% BSA, 0.05% Tween 20, 1 mM DTT) to remove unbound ligand and to reduce nonspecific binding. […] All reactions were performed in polystyrene 96-well plates in a final volume of 0.135 ml. […] The kinase concentration in the eluates was measured by qPCR.

MEK6 = MEK6 (Homo sapiens (Human), UniProt P52564); test: KINOMEscan competition binding assay (Kd); conditions: read-out: Kd Values Against MEK Kinases Isoforms: MEK6
Chain of MEK6 (P52564 whole entry, canonical isoform): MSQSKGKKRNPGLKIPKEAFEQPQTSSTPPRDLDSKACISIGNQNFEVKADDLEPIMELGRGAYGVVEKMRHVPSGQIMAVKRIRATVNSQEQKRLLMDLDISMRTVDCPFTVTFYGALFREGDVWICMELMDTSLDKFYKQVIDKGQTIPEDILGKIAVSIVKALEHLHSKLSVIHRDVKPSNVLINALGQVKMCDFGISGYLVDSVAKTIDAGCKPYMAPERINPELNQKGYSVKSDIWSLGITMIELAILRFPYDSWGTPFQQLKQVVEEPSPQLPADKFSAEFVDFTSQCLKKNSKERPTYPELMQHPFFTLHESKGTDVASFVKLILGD
Protocol: as §1, §2

MEK7 = MEK7 (Homo sapiens (Human), UniProt O14733); test: KINOMEscan competition binding assay (Kd); conditions: read-out: Kd Values Against MEK Kinases Isoforms: MEK7
Chain of MEK7 (O14733 whole entry, canonical isoform): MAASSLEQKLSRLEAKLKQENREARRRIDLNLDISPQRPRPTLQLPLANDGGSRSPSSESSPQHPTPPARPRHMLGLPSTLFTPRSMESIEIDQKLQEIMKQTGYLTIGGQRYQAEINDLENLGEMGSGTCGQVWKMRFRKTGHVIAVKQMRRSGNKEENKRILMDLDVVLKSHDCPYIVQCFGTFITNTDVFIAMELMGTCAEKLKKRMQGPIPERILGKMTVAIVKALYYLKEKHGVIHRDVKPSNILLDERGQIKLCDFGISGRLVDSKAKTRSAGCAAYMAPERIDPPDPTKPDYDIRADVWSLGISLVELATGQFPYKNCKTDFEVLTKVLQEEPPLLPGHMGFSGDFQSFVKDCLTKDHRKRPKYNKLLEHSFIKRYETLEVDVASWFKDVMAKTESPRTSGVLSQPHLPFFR
Protocol: as §1, §2

BRAF [2] = target: T1, BRAF; test: Radioisotope filter binding assay; type: biochemical; conditions: read-out: IC50 Activity Levels Against MAPK Pathway Kinases: BRAF
Procedure, shortened: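 Filter-binding radiometric kinase assay: 20 min compound–enzyme preincubation, then 2 h at room temperature with 33P-gamma-ATP, in Hepes pH 7.5 buffer containing Brij35, BSA, vanadate, DTT and 1% DMSO.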

FYN isoform (a) = FYN isoform (a) (Homo sapiens (Human), UniProt P06241); test: Kinase binding assay CaPBA; conditions: read-out: IC50 Activity Levels Against FYN isoforms, YES1 and MEK5: FYN isoform (a)
Chain of FYN isoform (a) (P06241 whole entry, canonical isoform): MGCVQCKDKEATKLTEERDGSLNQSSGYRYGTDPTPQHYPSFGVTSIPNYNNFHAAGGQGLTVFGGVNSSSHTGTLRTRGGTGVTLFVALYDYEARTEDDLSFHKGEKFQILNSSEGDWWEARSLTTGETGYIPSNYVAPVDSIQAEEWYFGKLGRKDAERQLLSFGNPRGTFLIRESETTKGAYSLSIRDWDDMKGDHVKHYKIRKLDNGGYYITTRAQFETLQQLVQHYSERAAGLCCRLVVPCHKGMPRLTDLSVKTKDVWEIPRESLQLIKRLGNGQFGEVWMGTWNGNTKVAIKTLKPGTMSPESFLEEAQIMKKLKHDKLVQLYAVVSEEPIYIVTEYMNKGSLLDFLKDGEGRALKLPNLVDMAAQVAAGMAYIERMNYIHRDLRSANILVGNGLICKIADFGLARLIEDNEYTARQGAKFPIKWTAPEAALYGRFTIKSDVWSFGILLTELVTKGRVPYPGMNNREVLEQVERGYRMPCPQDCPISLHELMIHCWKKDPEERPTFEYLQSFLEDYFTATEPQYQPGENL
Text: (§3) 4. Kinase Binding Assay CaPBA:

FYN isoform (b) = FYN isoform (b) (Homo sapiens (Human), UniProt P06241); test: Kinase binding assay CaPBA; conditions: read-out: IC50 Activity Levels Against FYN isoforms, YES1 and MEK5: FYN isoform (b)
Chain of FYN isoform (b) (P06241 other isoform, or with tags, fused parts or gaps): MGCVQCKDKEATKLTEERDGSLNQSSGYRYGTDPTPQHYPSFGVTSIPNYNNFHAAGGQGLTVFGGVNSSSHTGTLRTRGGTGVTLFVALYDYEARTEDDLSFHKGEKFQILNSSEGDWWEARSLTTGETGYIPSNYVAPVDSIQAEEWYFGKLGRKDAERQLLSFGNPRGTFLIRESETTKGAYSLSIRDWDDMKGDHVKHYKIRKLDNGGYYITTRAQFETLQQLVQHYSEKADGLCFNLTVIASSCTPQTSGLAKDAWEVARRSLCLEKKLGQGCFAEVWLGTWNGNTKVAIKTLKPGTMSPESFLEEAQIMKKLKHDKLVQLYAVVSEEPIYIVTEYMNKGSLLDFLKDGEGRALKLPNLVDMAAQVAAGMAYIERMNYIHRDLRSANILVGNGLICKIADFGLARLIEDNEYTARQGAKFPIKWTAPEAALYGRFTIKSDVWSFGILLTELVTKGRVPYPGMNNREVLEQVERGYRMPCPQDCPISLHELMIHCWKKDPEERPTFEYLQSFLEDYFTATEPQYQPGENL
Text: as §3

BLK = BLK (Homo sapiens (Human), UniProt P51451); test: Rabbit reticulocyte lysate assay (KinaseSeeker competition binding); conditions: read-out: IC50 Activity Levels Against SRC Family Kinases: BLK
Chain of BLK (P51451 whole entry): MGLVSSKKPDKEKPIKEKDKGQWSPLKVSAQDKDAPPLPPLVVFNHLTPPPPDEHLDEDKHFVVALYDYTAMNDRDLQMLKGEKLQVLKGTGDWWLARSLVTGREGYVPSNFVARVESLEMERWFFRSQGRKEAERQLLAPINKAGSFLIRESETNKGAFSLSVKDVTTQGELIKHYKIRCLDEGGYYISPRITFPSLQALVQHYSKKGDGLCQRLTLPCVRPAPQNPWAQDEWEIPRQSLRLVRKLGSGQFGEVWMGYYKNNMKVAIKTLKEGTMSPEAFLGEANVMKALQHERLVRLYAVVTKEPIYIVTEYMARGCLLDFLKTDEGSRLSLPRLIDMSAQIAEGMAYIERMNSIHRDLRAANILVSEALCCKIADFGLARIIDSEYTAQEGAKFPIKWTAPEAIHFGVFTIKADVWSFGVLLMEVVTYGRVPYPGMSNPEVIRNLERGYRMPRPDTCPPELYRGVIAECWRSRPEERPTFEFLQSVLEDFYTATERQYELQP

CSK = CSK (Homo sapiens (Human), UniProt P41240); test: as above; conditions: at 1 μM
HCK = HCK (Homo sapiens (Human), UniProt P08631); test: as above; conditions: read-out: IC50 Activity Levels Against SRC Family Kinases: HCK
LCK = LCK (Homo sapiens (Human), UniProt P06239); test: as above; conditions: read-out: IC50 Activity Levels Against SRC Family Kinases: LCK
Chain of LCK (P06239 whole entry): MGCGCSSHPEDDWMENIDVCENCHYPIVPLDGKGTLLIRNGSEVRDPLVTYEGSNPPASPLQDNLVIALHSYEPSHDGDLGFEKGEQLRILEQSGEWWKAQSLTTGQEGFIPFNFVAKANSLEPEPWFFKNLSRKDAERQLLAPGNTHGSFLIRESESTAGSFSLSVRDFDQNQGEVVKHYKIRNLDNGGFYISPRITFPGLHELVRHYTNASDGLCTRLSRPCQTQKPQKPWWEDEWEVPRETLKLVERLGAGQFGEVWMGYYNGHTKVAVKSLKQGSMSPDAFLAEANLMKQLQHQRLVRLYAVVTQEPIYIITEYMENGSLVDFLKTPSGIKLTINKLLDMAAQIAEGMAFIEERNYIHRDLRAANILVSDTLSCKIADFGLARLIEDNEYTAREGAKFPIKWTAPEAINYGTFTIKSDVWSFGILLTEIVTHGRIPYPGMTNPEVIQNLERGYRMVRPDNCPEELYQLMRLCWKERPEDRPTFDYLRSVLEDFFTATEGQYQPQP

LYN = LYN (Homo sapiens (Human), UniProt P07948); test: as above; conditions: at 1 μM
SRC = SRC (Homo sapiens (Human), UniProt P12931); test: as above; conditions: read-out: IC50 Activity Levels Against SRC Family Kinases: SRC
Chain of SRC (P12931 whole entry, looked up, canonical isoform): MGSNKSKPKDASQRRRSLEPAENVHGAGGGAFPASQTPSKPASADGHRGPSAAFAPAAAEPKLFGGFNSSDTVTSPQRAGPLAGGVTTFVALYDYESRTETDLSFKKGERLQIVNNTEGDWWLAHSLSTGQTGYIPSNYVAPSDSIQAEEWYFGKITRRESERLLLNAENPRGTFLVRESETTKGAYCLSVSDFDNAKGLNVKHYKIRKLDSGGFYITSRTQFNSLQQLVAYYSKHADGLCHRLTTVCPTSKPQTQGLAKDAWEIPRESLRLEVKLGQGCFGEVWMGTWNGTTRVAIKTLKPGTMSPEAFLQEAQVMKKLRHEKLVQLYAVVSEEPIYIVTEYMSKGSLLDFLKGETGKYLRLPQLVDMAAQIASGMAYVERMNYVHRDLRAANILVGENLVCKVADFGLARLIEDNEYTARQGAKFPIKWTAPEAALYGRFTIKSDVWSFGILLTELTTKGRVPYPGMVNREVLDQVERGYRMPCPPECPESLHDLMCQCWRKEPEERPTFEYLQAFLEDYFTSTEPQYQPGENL

MEK5 = MEK5 (Homo sapiens (Human), UniProt Q13163); test: Kinase binding assay CaPBA; conditions: read-out: IC50 Activity Levels Against FYN isoforms, YES1 and MEK5: MEK5
Chain of MEK5 (Q13163 whole entry, canonical isoform): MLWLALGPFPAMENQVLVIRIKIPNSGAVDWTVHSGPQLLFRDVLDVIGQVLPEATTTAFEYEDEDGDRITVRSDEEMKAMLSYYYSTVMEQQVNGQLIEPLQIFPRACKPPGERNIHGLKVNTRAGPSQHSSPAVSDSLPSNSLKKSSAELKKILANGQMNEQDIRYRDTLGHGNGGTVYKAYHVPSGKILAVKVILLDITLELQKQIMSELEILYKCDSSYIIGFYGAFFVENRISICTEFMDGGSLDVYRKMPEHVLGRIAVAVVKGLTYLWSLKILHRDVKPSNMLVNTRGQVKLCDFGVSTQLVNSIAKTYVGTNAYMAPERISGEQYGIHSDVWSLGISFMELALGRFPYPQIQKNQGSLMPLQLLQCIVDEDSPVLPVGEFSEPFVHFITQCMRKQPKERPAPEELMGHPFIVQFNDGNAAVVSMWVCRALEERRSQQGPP
Text: as §3

T1 sequence (P15056 whole entry): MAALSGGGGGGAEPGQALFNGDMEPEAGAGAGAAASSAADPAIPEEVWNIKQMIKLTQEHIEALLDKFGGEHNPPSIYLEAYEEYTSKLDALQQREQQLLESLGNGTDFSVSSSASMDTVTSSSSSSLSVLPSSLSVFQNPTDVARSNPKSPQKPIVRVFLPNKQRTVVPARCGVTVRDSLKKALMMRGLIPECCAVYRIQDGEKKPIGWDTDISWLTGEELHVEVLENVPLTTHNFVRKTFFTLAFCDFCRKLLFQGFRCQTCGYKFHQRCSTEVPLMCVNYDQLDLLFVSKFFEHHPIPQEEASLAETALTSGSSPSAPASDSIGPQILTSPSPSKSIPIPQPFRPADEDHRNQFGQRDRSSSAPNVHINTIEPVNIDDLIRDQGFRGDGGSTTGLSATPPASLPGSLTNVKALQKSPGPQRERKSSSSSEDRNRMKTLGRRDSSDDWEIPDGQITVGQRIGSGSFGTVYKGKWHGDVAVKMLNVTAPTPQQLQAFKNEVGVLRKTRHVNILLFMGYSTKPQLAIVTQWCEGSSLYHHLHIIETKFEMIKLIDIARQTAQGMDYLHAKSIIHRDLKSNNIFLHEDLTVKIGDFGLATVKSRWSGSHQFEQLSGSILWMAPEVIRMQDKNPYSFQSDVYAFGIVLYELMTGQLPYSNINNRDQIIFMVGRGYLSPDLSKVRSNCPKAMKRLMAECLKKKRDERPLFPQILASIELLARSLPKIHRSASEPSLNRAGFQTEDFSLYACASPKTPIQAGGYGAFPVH

Row | Structure (SMILES) | Kd (BRAF [1]) | Kd (MEK6) | Kd (MEK7) | IC50 (BRAF [2]) | IC50 (FYN isoform (a)) | IC50 (FYN isoform (b)) | IC50 (BLK) | % Inhibition Against SRC Family Kinases: CSK (CSK) | IC50 (HCK) | IC50 (LCK) | % Inhibition Against SRC Family Kinases: LYN (LYN) | IC50 (SRC) | IC50 (MEK5)
1 | Nc1ncnc2c1c(-c1ccc(Oc3ccccc3)cc1)nn2C[C@@H]1SSC[C@@H]1O [46 A.] | 1000 to 10000 nM | 1000 to 10000 nM | 1000 to 10000 nM | 1000 to 10000 nM |  |  |  |  |  |  |  |  | 
2 | Nc1ncnc2c1c(-c1ccc(Oc3ccccc3)cc1)nn2C[C@@H]1SSC[C@H]1O [43 A.] |  |  |  |  | 5 to 99 nM | 5 to 99 nM |  |  |  |  |  |  | 
3 | Nc1ncnc2c1c(-c1ccc(Oc3ccccc3)cc1)nn2C[C@H]1SSC[C@@H]1O [43 B.] |  |  |  |  | 5 to 99 nM | 5 to 99 nM | 100 to 999 nM | 70% | 100 to 999 nM | 100 to 999 nM | 57% | 100 to 999 nM | 1000 to 10000 nM
4 | Nc1ncnc2c1c(-c1ccc(Oc3ccccc3)cc1)nn2C[C@H]1SSC[C@H]1O [46 B.] | 1000 to 10000 nM | 1000 to 10000 nM | 1000 to 10000 nM | 1000 to 10000 nM |  |  |  |  |  |  |  |  | 1000 to 10000 nM
